In brackets after ≈: the same amount, converted by molar mass. Several values for one entry are separate records, joined by “and”; a condition that tells them apart may be missing. Equal values may be shown once. Read-outs that look alike come from different tables or passages of the source.
Key:
Staph. epiderm. clin. [1] = test: Antimicrobic activity, in vitro (CIM), second clinical isolate; type: cell-based, Staph. epiderm. (isolated clinically)
Text: (§1) Chim.Farm.119, p.181, 1980.
(§2) Antimicrobic activity, in vitro.
(§3) CIM^(1) values (mcg/ml)
(§4) ^(1) CIM = Mic = Minimal inhibitory concentration
(§5) ^(2) Clin. = Isolated clinically.

rat = test: Oral acute toxicity in the rat; type: in vivo
Text: as §1
(§6) Oral acute toxicity in the rat

rabbit mucoproduction = test: Activity on the rabbit mucoproduction (method of Scuri et al.); type: in vivo
Text: as §1
Activity on the rabbit mucoproduction.

staphylococcus aureus [2] = test system: staphylococcus aureus; design: unit not given beside the values; conditions: oral, 1 treatment
Staph. aureus 6538 = test: Antimicrobic activity, in vitro (CIM); type: cell-based, Staph. aureus 6538 (ATCC); conditions: Staph. aureus 6538, in vitro
Text: as §1, §2, §3, §4
(§7) ^(3) The 4digit strains are ATCC's

Staph. epiderm. clin. [3] = test: Antimicrobic activity, in vitro (CIM), first clinical isolate; type: cell-based, Staph. epiderm. (isolated clinically)
Text: as §1, §2, §3, §4, §5

Proteus vulgaris = test: Antimicrobic activity, in vitro (CIM); type: cell-based
Text: as §1, §2, §3, §4

Candida albicans = test: Antimicrobic activity, in vitro (CIM); type: cell-based
Text: as §1, §2, §3, §4

Pseudomonas aeruginosa = test: Antimicrobic activity, in vitro (CIM); type: cell-based
Text: as §1, §2, §3, §4

Escherichia coli 418 = test: Antimicrobic activity, in vitro (CIM); type: cell-based; conditions: Escherichia coli 418, in vitro
Text: as §1, §2, §3, §4

Micrococcus luteus 9341 = test: Antimicrobic activity, in vitro (CIM); type: cell-based, Micrococcus luteus 9341 (ATCC); conditions: Micrococcus luteus 9341, in vitro
Text: as §1, §2, §3, §4, §7

staphylococcus aureus [4] = test system: staphylococcus aureus; design: unit not given beside the values; conditions: intramuscular
Text: In Table 4, the activity data relating to the mucus production in the rabbit is reported, according to the method by Scuri et al., published in Boll. Chim.Farm.119, p.181, 1980.

Strept. faecalis 8043 = test: Antimicrobic activity, in vitro (CIM); type: cell-based, Strept. faecalis 8043 (ATCC); conditions: Strept. faecalis 8043, in vitro
Text: as §1, §2, §3, §4, §7

Serr. marcescens cl. = test: Antimicrobic activity, in vitro (CIM); type: cell-based, Serr. marcescens (isolated clinically)
Text: as §1, §2, §3, §4, §5

Staph. aureus 1414 = test: Antimicrobic activity, in vitro (CIM); type: cell-based, Staph. aureus 1414 (ATCC); conditions: Staph. aureus 1414, in vitro
Text: as §1, §2, §3, §4, §7

[5] = Oral acute toxicity in the rat; type: in vivo; conditions: in vivo, rat, read-out: DL50 (the source's name)
Text: as §1, §6

[6] = read-out: CIM (Mic, minimal inhibitory concentration)
[7] = Staphylococcus aureus, read-out: CIM (Mic, minimal inhibitory concentration)

CC[C@H]1OC(=O)[C@H](C)[C@@H](O[C@H]2C[C@@](C)(OC)[C@@H](O)[C@H](C)O2)[C@H](C)[C@@H](O[C@@H]2O[C@H](C)C[C@H](N(C)C)[C@H]2O)[C@](C)(O)C[C@@H](C)C(=O)[C@H](C)[C@@H](O)[C@]1(C)O.O=C(O)c1ccccc1C(=O)N1CCSC1 [CO/1316, erythromycin salt of o-carbonyl(1-thiazolidinyl)-benzoic acid]
CIM (Mic, minimal inhibitory concentration) (Staph. epiderm. clin. [1]): 0.1 µg/mL
acute oral toxicity compared with erythromycin base (rat): substantially coincides with that of the erythromycin base
DL50 (rat; rat): > 5.0 g/kg
Anim. with increase / Treated anim. (rabbit mucoproduction; 40 mg/kg ev): 9/14
Anim. with increase / Treated anim., % (rabbit mucoproduction; 40 mg/kg ev): 64/2
Mucoproduction: Var. % (rabbit mucoproduction; 40 mg/kg ev): +45%
DI50 (staphylococcus aureus [2]; medium infection): 350 and 510
DI50 (staphylococcus aureus [2]; serious infection): 560 and 720
CIM (Mic, minimal inhibitory concentration) (Staph. aureus 6538): 10 µg/mL
CIM (Mic, minimal inhibitory concentration) (Staph. epiderm. clin. [3]): 10 µg/mL
CIM (Mic, minimal inhibitory concentration) (Proteus vulgaris): 5 µg/mL
CIM (Mic, minimal inhibitory concentration) (Candida albicans): 100 µg/mL
CIM (Mic, minimal inhibitory concentration) (Pseudomonas aeruginosa; in vitro): +100 mcg/ml
CIM (Mic, minimal inhibitory concentration) (Escherichia coli 418): 50 µg/mL
CIM (Mic, minimal inhibitory concentration) (Micrococcus luteus 9341): 0.1 µg/mL
DI50 (staphylococcus aureus [4]; medium infection, 5 treatments): 76 and 152
DI50 (staphylococcus aureus [4]; serious infection, 1 treatment): 210 and 390
CIM (Mic, minimal inhibitory concentration) (Strept. faecalis 8043): 0.6 µg/mL
CIM (Mic, minimal inhibitory concentration) (Serr. marcescens cl.): 100 µg/mL
Solubility in 95% ethanol (95% ethanol): 32%
Solubility in acetone (acetone): 50%
Solubility in chloroform (chloroform): 50%
Solubility in dioxane (dioxane): 15%
Solubility in ethanol (ethanol): 50%
Solubility in ethyl ether (ethyl ether): 0.1%
Solubility in methanol (methanol): 57%
Solubility in n-hexane (n-hexane): pratically insoluble
Solubility in toluene (toluene): 0.3%
Solubility in water (water, ambient temperature): 3 % W/V
CIM (Mic, minimal inhibitory concentration) (Staph. aureus 1414): 10 µg/mL

CC[C@H]1OC(=O)[C@H](C)[C@@H](O[C@H]2C[C@@](C)(OC)[C@@H](O)[C@H](C)O2)[C@H](C)[C@@H](O[C@@H]2O[C@H](C)C[C@H](N(C)C)[C@H]2O)[C@](C)(O)C[C@@H](C)C(=O)[C@H](C)[C@@H](O)[C@]1(C)O [Erythromycin]
MIC (Staph. epiderm. clin. [1]; [6]): 0.1 µg/mL (≈ 0.136 µM)
LD50 [5]: > 5000 mg/kg
Anim. with increase / Treated anim. (rabbit mucoproduction; 30 mg/kg ev): 0/10
Mucoproduction: Var. % (rabbit mucoproduction; 30 mg/kg ev): Inactive
MIC (Staph. aureus 6538; [7]): 10 µg/mL (≈ 13.6 µM)
MIC (Staph. epiderm. clin. [3]; [6]): 10 µg/mL (≈ 13.6 µM)
MIC (Proteus vulgaris; [6]): 2.5 µg/mL (≈ 3.41 µM)
MIC (Candida albicans; [6]): 100 µg/mL (≈ 136 µM)
MIC (Pseudomonas aeruginosa; [6]): 100 µg/mL (≈ 136 µM)
MIC (Escherichia coli 418; [6]): 25 µg/mL (≈ 34.1 µM)
MIC (Micrococcus luteus 9341; [6]): 0.1 µg/mL (≈ 0.136 µM)
MIC (Strept. faecalis 8043; Enterococcus faecalis, read-out: CIM (Mic, minimal inhibitory concentration)): 0.3 µg/mL (≈ 0.409 µM)
MIC (Serr. marcescens cl.; Serratia marcescens, read-out: CIM (Mic, minimal inhibitory concentration)): 50 µg/mL (≈ 68.1 µM)
MIC (Staph. aureus 1414; [7]): 10 µg/mL (≈ 13.6 µM)

Source: patent publication US4575496A, “Erythromycin salt of the o-carbonyl(1-thiazolidinyl)-benzoic acid and pharmaceutical compositions containing it” (Camillo Corvi S.p.A., priority 1983, dated 1986)
